Experiments:
[1] = target: Ustilago maydis acetyl CoA carboxylase (ACCase) (Mycosarcoma maydis (Ustilago maydis), UniProt A0A0D1DYD5); test: ACCase enzymatic assay (coupled PK/LDH, NADH OD340); type: biochemical; settings: Table 1A; values marked a are a result of two or more experiments; read-out: ACCase Inhibitory Activity IC50
Protocol: Ustilago maydis acetyl CoA carboxylase (ACCase) was cloned, expressed, and purified as described (Weatherly et al, Biochem. J., 2004) and the test compounds were tested in a 96-well plate format. Primary in vitro screening consisted of obtaining dose response data at 100, 33, 10, and 1 μM inhibitor. Actives in the primary screen were re-tested to establish IC50 values.
Direct detection of the conversion of acetyl CoA to malonyl CoA by ACCase was not feasible, but during this process ATP is converted to ADP which allowed for detection through a standard reaction coupling with ADP recycling to the oxidation of NADH. Thus, ACCase activity was measured via kinetic OD340 measurements of the conversion of NADH to NAD in a coupled reaction involving the conversion of phosphoenolpyruvate (PEP) to lactate.
The complete 200 ul reaction mixture contained 52.5 mM HEPES (pH8), 2.625 mM MgCl2, 1 mM ATP, 0.525 mM DTT, 11 mM NaHCO3, 1% DMSO with or without inhibitor, 1× pyruvate kinase/lactate dehydrogenase (PK/LDH), 0.3 mM NADH, 0.5 mM PEP, and 5 μg ACCase. The reactions were incubated at 30° C. for 10 minutes and then initiated by the addition of 0.33 mM acetyl CoA. The initiated reactions were read immediately via plate reader at OD340 and kinetic readings were acquired every 20 s for 15 minutes while keeping the temperature at 30° C.
A slope of the kinetic curve was determined by using the 2 to 7 minute data which was then calculated as percent inhibition relative to the no inhibitor control.
The primary screens were conducted in duplicate and the IC50's conducted in triplicate. Averages were reported along with standard deviation calculation to generate error bars.
Each plate contained its own controls and consisted of a DMSO only control, 5-fold titration series of soraphen from 2 μM to 3.2 nM, and an ADP coupled reaction control.

[2] = tested on: Collectotrichum graminicola; test: Fungal growth inhibition assay, Collectotrichum graminicola; type: cell-based; settings: Colletotrichum graminicola, 48 hours, read-out: C. graminicola % growth inhibition at 48 hours
Protocol: (§1) Spores were isolated from previously sub-cultured plates of Botrytis cinerea, Phytophthora capsici, Fusarium moniliforme, Fusarium viguliforme, Collectotrichum graminicola, and Diplodia maydis. All spores were filtered and collected in a sterile glass bowl to isolate the spores from the mycelia. The isolation and sub-culture plate condition for each pathogen is described below.
Spore isolation for C. graminicola: A 1-2 week old oatmeal agar (pre-mix) plate was removed from 26° C. incubator with a light/dark 12 hour cycle and the mycelia were treated with 10-15 ml of filter sterilized distilled water. The mycelia were scraped to re-suspend the spores. The spores were then collected in a sterile filter bowl containing a piece of sterile cheesecloth and poured into a conical tube.
(§2) After spore isolation, pathogen spores were counted on a hemocytometer to calculate the spores/ml. In 17% V8 liquid media containing 3 g/L CaCO3, isolated spores were diluted to individual concentrations based on the growth curves at 48 hours of each pathogen. The spore concentrations for each pathogen were as follows: B. cinerea—10,000 sp/ml; P. capsici—300 sp/ml; F. monliforme—500 sp/ml; F. virguliforme—500 sp/ml; C. graminicola—3,000 sp/ml; and D. maydis—3,000 sp/ml.
(§3) Chemistry stocks were dissolved in DMSO at 2.5 mg/ml. Chemistry was diluted in a 96-well stock plate in five-fold dilutions to obtain a final concentration of 50, 10, and 2 ppm in vitro. The final concentration of the positive control after the five-fold dilutions was as follows: soraphen—0.5, 0.1, and 0.02 ppm. Negative controls on each plate included 2% DMSO, water containing spores and media, and a blank for background subtraction.
(§4) In a 96-well plate the spore solution, chemistries, and controls were combined to make the final solution concentrations mentioned above. Upon addition of the chemistry, an OD600 reading was done to assess chemical precipitation. The 96-well plates were incubated in plastic tubs containing wet paper towels under the following conditions, 25° C. in the dark for P. capsici and B. cinerea or 26° C. with light/dark cycle for C. graminicola, D. maydis, F. virguliforme, F. monliforme. Plate readings were repeated at 24 and 48 hrs. Visual ratings were performed at 24 and 48 hrs to check for precipitation and confirm efficacy. Visual and OD600 ratings of the chemistry at 48 hours were compared to the 2% DMSO control to determine the percent of pathogen growth inhibition.

[3] = tested on: Diplodia maydis; test: Fungal growth inhibition assay, Diplodia maydis; type: cell-based; settings: 48 hours, read-out: D. maydis % growth inhibition at 48 hours
Protocol: as §1
Spore isolation for D. maydis: A 3-4 week old PDA (pre-mix) plate was removed from 26° C. incubator with a light/dark 12 hour cycle and the mycelia were treated with 6-7 ml of sterile distilled water, scraped into a sterile petri dish, and smashed to open the pycnidia. The spores were then collected in a sterile filter bowl containing a fluted piece of filter paper and poured into a conical tube.
as §2, §3, §4

[4] = tested on: Phytophthora capsici; test: Fungal growth inhibition assay, Phytophthora capsici; type: cell-based; settings: 48 hours, read-out: P. capsici % growth inhibition at 48 hours
Excerpt: as §1
Spore isolation for P. capsici: Three to five days prior to the assay a 2-3 week old V8 (17%)+CaCO3 (3 g/L)+20 g agar plate was removed from a dark 25° C. incubator and cut up into small chunks. One plate was separated into two deep well plates and rinsed with sterile distilled water three times. The cut up pieces were incubated under light in a sterile filter hood with 25 ml of sterile distilled water. On the day of the assay the water was removed and 5-7 ml of fresh sterile distilled water was added. One plate was incubated at 4° C. for 45-60 minutes and then placed at room temperature for about 45-60 minutes. The spores were collected in a sterile filter bowl containing a fluted piece of filter paper. The spores were vortexed in a conical tube for 30-60 seconds to remove the flagella of the zoospores after isolation.
as §2, §3, §4

Chain of Ustilago maydis acetyl CoA carboxylase (ACCase) (A0A0D1DYD5 1-2185): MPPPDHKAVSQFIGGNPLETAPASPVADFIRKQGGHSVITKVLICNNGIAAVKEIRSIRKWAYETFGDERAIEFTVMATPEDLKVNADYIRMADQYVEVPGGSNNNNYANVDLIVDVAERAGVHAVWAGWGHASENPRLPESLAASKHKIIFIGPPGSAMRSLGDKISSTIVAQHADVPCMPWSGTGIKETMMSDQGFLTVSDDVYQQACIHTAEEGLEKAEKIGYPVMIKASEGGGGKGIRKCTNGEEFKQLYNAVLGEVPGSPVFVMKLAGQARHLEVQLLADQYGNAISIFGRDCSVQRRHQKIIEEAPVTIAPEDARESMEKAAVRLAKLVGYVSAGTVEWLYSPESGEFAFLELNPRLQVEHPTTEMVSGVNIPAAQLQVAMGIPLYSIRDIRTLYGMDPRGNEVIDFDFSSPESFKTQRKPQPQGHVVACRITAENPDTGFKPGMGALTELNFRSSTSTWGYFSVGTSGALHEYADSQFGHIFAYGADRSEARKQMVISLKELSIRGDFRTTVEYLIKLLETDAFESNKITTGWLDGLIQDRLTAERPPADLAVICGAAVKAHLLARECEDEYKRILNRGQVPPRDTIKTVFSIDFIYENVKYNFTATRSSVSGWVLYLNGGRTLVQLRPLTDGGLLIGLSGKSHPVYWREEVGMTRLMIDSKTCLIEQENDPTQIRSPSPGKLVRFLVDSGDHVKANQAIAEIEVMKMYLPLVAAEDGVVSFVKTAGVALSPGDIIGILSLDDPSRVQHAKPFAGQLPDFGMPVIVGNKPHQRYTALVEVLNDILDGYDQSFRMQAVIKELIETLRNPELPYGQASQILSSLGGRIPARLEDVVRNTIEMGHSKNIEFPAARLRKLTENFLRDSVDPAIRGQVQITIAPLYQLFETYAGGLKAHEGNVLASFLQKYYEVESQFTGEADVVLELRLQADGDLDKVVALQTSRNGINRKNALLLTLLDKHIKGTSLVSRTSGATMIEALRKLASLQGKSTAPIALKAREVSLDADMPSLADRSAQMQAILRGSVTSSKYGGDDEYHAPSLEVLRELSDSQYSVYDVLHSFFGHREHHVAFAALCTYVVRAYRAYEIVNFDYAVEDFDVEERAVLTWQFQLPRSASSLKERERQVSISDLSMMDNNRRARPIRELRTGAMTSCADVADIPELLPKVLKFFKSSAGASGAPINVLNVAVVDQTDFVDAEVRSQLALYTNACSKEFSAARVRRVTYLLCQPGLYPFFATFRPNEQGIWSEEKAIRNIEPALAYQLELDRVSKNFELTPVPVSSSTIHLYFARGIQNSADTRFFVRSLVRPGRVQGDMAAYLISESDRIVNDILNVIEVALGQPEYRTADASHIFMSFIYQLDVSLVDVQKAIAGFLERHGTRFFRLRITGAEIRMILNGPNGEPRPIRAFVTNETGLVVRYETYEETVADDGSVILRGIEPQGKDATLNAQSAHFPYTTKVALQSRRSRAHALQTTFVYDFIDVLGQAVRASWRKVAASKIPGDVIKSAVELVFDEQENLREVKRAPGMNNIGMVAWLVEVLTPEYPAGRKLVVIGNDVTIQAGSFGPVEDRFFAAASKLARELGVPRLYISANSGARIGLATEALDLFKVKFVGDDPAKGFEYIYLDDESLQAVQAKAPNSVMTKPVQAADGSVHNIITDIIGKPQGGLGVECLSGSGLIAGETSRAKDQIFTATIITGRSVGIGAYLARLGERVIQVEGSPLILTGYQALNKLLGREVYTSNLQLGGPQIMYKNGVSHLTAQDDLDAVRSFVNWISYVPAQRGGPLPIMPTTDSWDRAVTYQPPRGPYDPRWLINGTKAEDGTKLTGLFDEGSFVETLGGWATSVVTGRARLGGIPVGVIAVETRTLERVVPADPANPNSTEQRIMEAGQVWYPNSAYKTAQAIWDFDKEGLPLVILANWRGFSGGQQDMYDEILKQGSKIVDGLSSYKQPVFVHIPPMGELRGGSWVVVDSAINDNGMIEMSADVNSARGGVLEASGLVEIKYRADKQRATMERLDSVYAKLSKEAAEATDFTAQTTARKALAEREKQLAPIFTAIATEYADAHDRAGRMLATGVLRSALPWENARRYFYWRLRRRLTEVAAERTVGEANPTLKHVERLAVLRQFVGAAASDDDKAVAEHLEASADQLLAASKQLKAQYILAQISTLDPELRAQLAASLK

N#Cc1c(-c2ccc(Cl)cc2)cc(-c2cccs2)nc1SC(C(=O)O)c1ccccc1 (stereo not drawn) [Formula Ia-i, 2-((4-(4-chlorophenyl)-3-cyano-6-(thiophen-2-yl)pyridin-2-yl)thio)-2-phenylacetic acid]
IC50 [1]: 0.37 µM
inhibition at 2 ppm [2]: 28%
inhibition at 10 ppm [2]: 72%
inhibition at 50 ppm [2]: 92%
inhibition at 2 ppm [3]: 3%
inhibition at 10 ppm [3]: 57%
inhibition at 50 ppm [3]: 65%

N#Cc1c(-c2ccccc2)cc(-c2cccs2)nc1SC(C(=O)O)c1ccccc1 (stereo not drawn) [Formula Ia-iv, 2-((3-cyano-4-phenyl-6-(thiophen-2-yl)pyridin-2-yl)thio)-2-phenylacetic acid]
IC50 [1]: 0.492 µM
inhibition at 2 ppm [2]: 5%
inhibition at 10 ppm [2]: 41%
inhibition at 50 ppm [2]: 76%
inhibition at 2 ppm [4]: 0%
inhibition at 10 ppm [4]: 11%
inhibition at 50 ppm [4]: 90%

COc1ccc(-c2cc(C(F)(F)F)c(C#N)c(SC(C(=O)O)c3ccccc3)n2)cc1OC (stereo not drawn) [Formula Ia-ix, 2-((3-cyano-6-(3,4-dimethoxyphenyl)-4-(trifluoromethyl)pyridin-2-yl)thio)-2-phenylacetic acid]
IC50 [1]: 1.6 µM
inhibition at 2 ppm [2]: 5%
inhibition at 10 ppm [2]: 17%
inhibition at 50 ppm [2]: 72%
inhibition at 2 ppm [3]: 32%
inhibition at 10 ppm [3]: 37%
inhibition at 50 ppm [3]: 70%
inhibition at 2 ppm [4]: 10%
inhibition at 10 ppm [4]: 39%
inhibition at 50 ppm [4]: 34%

COc1ccc(-c2cc(-c3cccs3)nc(SC(C(=O)O)c3ccccc3)c2C#N)cc1 (stereo not drawn) [Formula Ia-v, 2-((3-cyano-4-(4-methoxyphenyl)-6-(thiophen-2-yl)pyridin-2-yl)thio)-2-phenylacetic acid]
IC50 [1]: 0.119 µM
inhibition at 2 ppm [2]: 0%
inhibition at 10 ppm [2]: 32%
inhibition at 50 ppm [2]: 79%
inhibition at 2 ppm [3]: 0%
inhibition at 10 ppm [3]: 61%
inhibition at 50 ppm [3]: 52%

N#Cc1c(SC(C(=O)O)c2ccccc2)nc(-c2cccs2)c2c1CCCC2 (stereo not drawn) [Formula Ia-vii, 2-((4-cyano-1-(thiophen-2-yl)-5,6,7,8-tetrahydroisoquinolin-3-yl)thio)-2-phenylacetic acid]
IC50 [1]: 3.81 µM
inhibition at 2 ppm [2]: 11%
inhibition at 10 ppm [2]: 19%
inhibition at 50 ppm [2]: 71%
inhibition at 2 ppm [3]: 11%
inhibition at 10 ppm [3]: 46%
inhibition at 50 ppm [3]: 64%
inhibition at 2 ppm [4]: 0%
inhibition at 10 ppm [4]: 9%
inhibition at 50 ppm [4]: 100%

N#Cc1c(SC(C(=O)O)c2ccccc2)nc2c(c1-c1cccs1)CCCC2 (stereo not drawn) [Formula Ia-xiii, 2-((3-cyano-4-(thiophen-2-yl)-5,6,7,8-tetrahydroquinolin-2-yl)thio)-2-phenylacetic acid]
IC50 [1]: 0.274 µM
inhibition at 2 ppm [3]: 20%
inhibition at 10 ppm [3]: 13%
inhibition at 50 ppm [3]: 40%

— patent US10548313B2, “Acetyl-CoA carboxylase modulators” (Monsanto Technology LLC, priority 2013, dated 2020)
